Experimental data published in PubChem BioAssay AID1996.
Converted amounts (≈) assume the structure as drawn.

Conditions: buffer; pH 7.4; 200.0 µM

Row | Compound | solubility kinetic [µg/mL]
1 | CC(=O)c1cccc(NC(=O)C(C)OC(=O)C2CCC2)c1 (stereo not given) | > 43.4
2 | Cc1ccc(S(=O)(=O)CCC(=O)OCc2nnc(-c3ccccc3)o2)cc1 | > 58
3 | c1ccc(P(c2ccccn2)c2ccccn2)cc1 | > 39.6
4 | O=C(COC(=O)c1c(F)cccc1Cl)NCC1CCCCC1 | 40.9 (≈ 125 µM)
5 | CCCc1cc(=O)[nH]c(SCC(=O)Nc2cccc3ccccc23)n1 | 3.4 (≈ 9.62 µM)
6 | CC(C)N=C(Nc1cccnc1)c1ccccc1 | > 35.9
7 | Cc1ccc(-n2c(C)nc3cc(Cl)ccc3c2=O)nc1 | > 42.9
8 | O=C(c1ccccc1)c1cccn1CC(=O)N1CCc2ccccc2C1 | 41.4 (≈ 120 µM)
9 | COc1ccc(O)c(/C=C(\C#N)C(=O)Nc2ccccn2)c1 | 22.8 (≈ 77.2 µM)
10 | Cc1ccc(CNCC(O)(c2ccccc2)c2ccccc2)cc1 | 6 (≈ 18.9 µM)
11 | O=C(CCSCc1ccccc1Cl)NCc1ccco1 | > 46.5
12 | Cc1ccc(C)c(Nc2c([N+](=O)[O-])ccc3nonc23)c1 | 0.2 (≈ 0.704 µM)
13 | CN(C)C(=O)c1cc(C(=O)c2ccc(F)cc2Cl)c[nH]1 | > 44.2
14 | Cc1ccc(NC(=O)Nc2cccnc2)cc1 | > 34.1
15 | O=C1CSC(c2cccnc2)N1Cc1ccc(Cl)cc1Cl (stereo not given) | > 50.9
16 | Cc1cc(C(=O)NC2CCC(C)CC2)c(C)o1 (stereo not given) | 12.6 (≈ 53.5 µM)
17 | Cc1ccccc1CC(=O)NCC1CCCCC1 | 12.9 (≈ 52.6 µM)
18 | Cc1ccc(NC(=O)CCc2nc3ccccc3s2)c(O)c1 | 8.9 (≈ 28.5 µM)
19 | CCc1sc(C(=O)Nc2ncccc2C)cc1C | > 39.1
20 | O=C(NCC(c1ccco1)N1CCc2ccccc21)c1cccc(F)c1 (stereo not given) | 16.3 (≈ 46.5 µM)
21 | Cc1ccc(NC(=O)c2ccc([N+](=O)[O-])o2)c(C)c1 | > 39
22 | CCOc1ccc(C(=O)CCC(=O)Nc2ccc(C)cn2)cc1 | 5.6 (≈ 17.9 µM)
23 | S=c1nc(NCc2cccc(Cl)c2)c2ccccc2[nH]1 | 0.5 (≈ 1.66 µM)
24 | O=C(NCCc1ccccc1)C1CCN(C(=O)c2ccc(F)cc2)CC1 | 47.4 (≈ 134 µM)

Row | Compound | solubility kinetic [µg/mL]
25 | CC1CCN(S(=O)(=O)c2ccc(Cl)s2)CC1 | 15.3 (≈ 54.7 µM)
26 | COc1ccc(/C=N/S(=O)(=O)c2ccc(C)cc2)cc1 | 41 (≈ 142 µM)
27 | CC(=O)NCc1ccc(-c2csc(NC(=O)CCc3nc4ccccc4c(=O)[nH]3)n2)s1 | 7.3 (≈ 16.1 µM)
28 | O=C(COc1ccccc1Cl)Nc1nc(-c2ccncc2)cs1 | 11.4 (≈ 33 µM)
29 | CC1(C)CC(NC(=O)c2cccc(F)c2)CC(C)(C)N1 | 40.8 (≈ 147 µM)
30 | O=C(NCc1ccco1)c1ccc(Cn2c(=S)[nH]c3ccccc3c2=O)cc1 | 0.4 (≈ 1.02 µM)
31 | COc1ccc(C(=O)NC(=S)N2CCCC2)cc1 | > 39.7
32 | Cc1cc2c(SCC(=O)NC3CCCC3)ncnc2s1 | 30.2 (≈ 98.2 µM)
33 | CC1CC(NC(=O)CC#N)CC(C)(C)C1 (stereo not given) | > 31.2
34 | Cc1ccc(CNC(=O)C2CCCC2)cc1 | 27.5 (≈ 127 µM)
35 | O=C(CSc1ncc(-c2ccccc2)[nH]1)Nc1ccccc1F | > 49.1
36 | COc1ccccc1Nc1ccc([N+](=O)[O-])cn1 | 8.1 (≈ 33 µM)
37 | COc1ccc(C2(c3ccc(OC)cc3)NC(=O)N(CC(=O)NC3CCS(=O)(=O)C3)C2=O)cc1 (stereo not given) | > 73.1
38 | O=C(CCC(=O)Nc1ccccc1Cl)NN=C1CCCC1 | > 46.2
39 | COc1ccc2c(c1)c1ncn(Cc3ccccn3)c(=O)c1n2C | 13.6 (≈ 42.5 µM)
40 | O=C1c2cccnc2C(=O)N1CNc1ccc(Cl)cc1 | 34.5 (≈ 120 µM)
41 | O=C(CSc1ccccc1C(=O)O)NCC1CCCCC1 | 44.2 (≈ 144 µM)
42 | Cc1nnc(NC(=O)c2ccc(Br)o2)s1 | > 43.2
43 | CCOC(=S)N/C(=N\S(C)(=O)=O)c1ccccc1 | > 43
44 | COc1cccc(NC(=S)Nc2ccc(Br)cc2Cl)c1 | 4.6 (≈ 12.4 µM)
45 | CCC(NC(=S)NC1CCCCC1)c1ccc(C)cc1 (stereo not given) | 5.3 (≈ 18.2 µM)
46 | COc1cc(CN2CCCN(C)CC2)c([N+](=O)[O-])cc1OC | 39 (≈ 126 µM)
47 | COc1cc(C(=O)NCc2cccs2)ccc1OCc1c(C)noc1C | 5.9 (≈ 15.8 µM)
48 | COc1ccc(-c2noc(=O)n2Cc2ccccc2F)cc1 | 29.6 (≈ 98.6 µM)

Row | Compound | solubility kinetic [µg/mL]
49 | O=C(O)c1ccc(S(=O)(=O)N2CCN(c3ccccn3)CC2)cc1 | > 52.1
50 | CCc1ccccc1N1CC(C(=O)Nc2nccs2)CC1=O (stereo not given) | 45.2 (≈ 143 µM)
51 | CCOc1ccccc1/C=C(\C(=O)O)c1ccc(S(=O)(=O)N2CCCCC2)s1 | > 63.2
52 | O=C(COC(=O)Cc1ccc(Cl)cc1)NC1CCCC1 | > 44.4
53 | O=C(NCC(=O)N1CCCCCCC1)c1ccco1 | > 39.6
54 | CCOC(=O)CC1C(=O)NCCN1C(=O)c1ccc(Cl)cc1 (stereo not given) | > 48.7
55 | N#Cc1cccc(NC(=O)CCNC(=O)c2ccccc2Cl)c1 | > 49.2
56 | CN1C(=O)C(CC(=O)O)S/C1=N\N=C\c1ccc(O)cc1O (stereo not given) | > 48.5
57 | CCn1c(SCC(=O)NC2CCCCC2)nnc1-c1ccccc1F | > 54.4
58 | COc1ccc(C(=O)NC(C)c2cccnc2)cc1S(=O)(=O)N(C)Cc1ccccc1 (stereo not given) | 47 (≈ 107 µM)
59 | O=C(NCCCO)C(=O)Nc1cc2c3c(c1)CCC(=O)N3CCC2 | 48.8 (≈ 147 µM)
60 | Cc1cc(NC(=O)c2ccc3[nH]c(C)c(C)c3c2)ccn1 | 37.6 (≈ 135 µM)
61 | O=C(NCCc1ccc(Cl)cc1)c1cccs1 | > 39.9
62 | CCn1c(O)c(C=NCc2ccccc2)sc1=S | < 0.3
63 | CCOC(=O)C1=C(C)N=C2SCCC(=O)N2[C@@H]1c1cccs1 | 39.1 (≈ 116 µM)
64 | O=C(CNC(=O)c1ccccc1)Oc1ccc([N+](=O)[O-])cc1 | > 45
65 | COc1ccc(Nc2ncnc3ccc([N+](=O)[O-])cc23)c(OC)c1 | 10.5 (≈ 32.2 µM)
66 | O=c1[nH]c(=S)n(C2CC2)c(O)c1C=NCc1ccc(F)cc1 | 0.9 (≈ 2.82 µM)
67 | CC(C)N(C(=O)Nc1ccc2nccnc2c1)C(C)C | 2.3 (≈ 8.44 µM)
68 | COCc1cc(C)nc(NC2CC(C)(C)NC(C)(C)C2)c1C#N | > 47.5
69 | CN(c1ccccc1)S(=O)(=O)c1ccc(C(=O)N2CCN(c3ccccc3Cl)CC2)cc1 | 6.8 (≈ 14.5 µM)
70 | Cn1cnc2c(cnn2-c2ccccc2)c1=O | > 33.9
71 | CSCCC(NC(=O)c1ccco1)c1nc2ccccc2[nH]1 (stereo not given) | > 47.3
72 | COc1ccc(/C=C/C(=O)O)cc1S(=O)(=O)N1CCCC1 | > 46.7

Row | Compound | solubility kinetic [µg/mL]
73 | Cc1ccc(C(=O)NCC(=O)N2CCc3ccccc3C2)cc1C | > 48.4
74 | O=C(/C=C/c1ccccc1)OCCN=C1NS(=O)(=O)c2ccccc21 | 8.6 (≈ 24.1 µM)
75 | O=C(COc1ncnc2ccccc12)NC1CCCCC1 | > 42.8
76 | Cc1cc(C(=O)CCC(=O)Nc2ncccc2O)c(C)s1 | > 45.7
77 | Br.Cn1ccnc1SCC(=O)c1ccc(O)cc1 | > 49.4
78 | NC(=O)Nc1ccccc1C(=O)Nc1ccc2ccccc2c1 | 19.6 (≈ 64.2 µM)
79 | CCOc1ccc(NC(=O)C2CCN(S(C)(=O)=O)CC2)cc1 | 20.2 (≈ 61.9 µM)
80 | O=C(COC(=O)c1ccccc1O)NC12CC3CC(CC(C3)C1)C2 | 14.5 (≈ 44 µM)
81 | COc1ccccc1Nc1c2ccccc2nc2ccccc12 | 35.5 (≈ 118 µM)
82 | CC(C)NC(=S)N1CCCN(c2ncccc2[N+](=O)[O-])CC1 | > 48.5
83 | COC(=O)c1c(NC(=O)CCCC(=O)O)sc2c1CCCCC2 | > 50.9
84 | CN1CCN(c2nc(-c3ccc(Cl)c(Cl)c3)nc3ccccc23)CC1 | 0.4 (≈ 1.07 µM)
85 | COc1ccc(C(=O)Nc2cc(C)nn2-c2ccc(C)cc2)cc1 | > 48.2
86 | CC(=O)Nc1ccc(NC(=O)C2C3CCC(C3)C2C(=O)O)cc1 (stereo not given) | > 47.5
87 | COc1ccc(N2CCN(CC(=O)Nc3ccc(C)cc3)CC2)cc1 | 46.8 (≈ 138 µM)
88 | COc1ccc(C(=O)OCC(=O)NCc2cccs2)c(OC)c1OC | > 54.8
89 | CN(CCN1CCOCC1)Cc1nc(-c2cccs2)no1 | 44.5 (≈ 144 µM)
90 | Cc1cccc(C(=O)NCC(=O)OCC(=O)N2CCCCC2)c1 | 46 (≈ 144 µM)
91 | O=C(CC1Sc2ccccc2NC1=O)NCc1ccc(Cl)cc1 (stereo not given) | < 0.4
92 | CC(C)(C)C(=O)NC(c1ccccc1)c1c(O)ccc2ccccc12 (stereo not given) | 0.9 (≈ 2.7 µM)
93 | O=C1CN(C(=O)/C=C/c2ccccc2)CCN1 | > 34.5
94 | CC(=O)N1CCN(CC(=O)Nc2cccc(S(=O)(=O)N3CCCCC3)c2)CC1 | > 61.3
95 | OCc1nc2ccccc2n1CCCCOc1ccccc1 | > 44.5
96 | CCn1c(C)c(C(=O)O)c2cc(OC)c3ccccc3c21 | 16.8 (≈ 59.3 µM)

Row | Compound | solubility kinetic [µg/mL]
97 | O=C(O)c1cccc(Nc2ccncc2[N+](=O)[O-])c1 | > 38.9
98 | Cc1cc2cc(OCc3ccccc3)ccc2n1C | < 0.5
99 | CN(CC(=O)NCCc1ccc(S(N)(=O)=O)cc1)CC(=O)Nc1ccccc1C(F)(F)F | > 70.9
100 | CC1CN(C(=O)CCCN2C(=O)c3ccccc3C2=O)CC(C)O1 (stereo not given) | > 49.6
101 | O=C(COc1ccc(F)cc1)Nc1ccc2c(c1)OCCO2 | 7.9 (≈ 26 µM)
102 | Cc1cc(C(=O)COc2ccc([N+](=O)[O-])cc2)c(C)n1C1CC1 | 2.2 (≈ 7 µM)
103 | CCCNC(=S)N1CCCC(c2nc3ccccc3[nH]2)C1 (stereo not given) | 13.4 (≈ 44.3 µM)
104 | O=C(/C=C/c1ccc(F)cc1)N1CC[C@@]2(O)CCCC[C@H]2C1 | > 45.5
105 | NC(N)=O | > 9
106 | Cc1cccc(Nc2nc(C)cc(C)c2C#N)c1 | 0.8 (≈ 3.37 µM)
107 | CCOc1ccc2nc(Cl)sc2c1 | < 0.5
108 | CCC(Oc1ccccc1)C(=O)Nc1ccccc1N1CCCC1 (stereo not given) | 7.9 (≈ 24.4 µM)
109 | Cc1c(C=O)c2ccccn2c1C(=O)c1ccc(Cl)c([N+](=O)[O-])c1 | 1.6 (≈ 4.67 µM)
110 | CCOc1cccc(C(=O)Nc2ccc3c(c2)OCCO3)c1 | 27.3 (≈ 91.2 µM)
111 | O=C(O)CN1C(=O)C(=O)N(Cc2ccc(C(F)(F)F)cc2)C1=O | > 49.5
112 | Cc1ccc(NC(=O)Cc2ccc(-c3ccccc3)cc2)nc1 | 5.7 (≈ 18.9 µM)
113 | Cc1ccsc1C(=O)OCC(=O)N(C)C1CCCCC1 | > 44.3
114 | CC(=O)Nc1cccc(NC(=O)C2CC(=O)N(CCc3ccc(F)cc3)C2)c1 (stereo not given) | 38.4 (≈ 100 µM)
115 | CS(=O)(=O)N(CCc1ccccc1)CC(=O)N1CCCC1 | > 46.6
116 | CC(=O)N(C)c1ccc(N=Cc2cc3c(cc2[N+](=O)[O-])OCO3)cc1 | 44.1 (≈ 129 µM)
117 | CN(Cc1ccccc1)C(=O)c1cccnc1 | > 33.9
118 | CC(=O)c1cccc(NC(=O)C(C)OC(=O)C2=NNC(=O)CC2)c1 (stereo not given) | > 49.7
119 | C=CCn1c(-c2ccccc2)nc(=S)c2c1CCCC2 | > 42.4
120 | CCOC(=O)C1(Cc2cccc(F)c2)CCN(CC(O)CO)CC1 (stereo not given) | 43.3 (≈ 128 µM)
